In brackets after ≈: the same amount, converted by molar mass. Like-named read-outs stand apart in the source and are kept apart here.
Legend:
Assay in all cases: MIC, in vitro antibacterial activity (standard strains)
E. coli ATCC 10536 = type: cell-based, Escherichia coli; conditions: Escherichia coli, ATCC10536; 10^6 cells/ml; Gram -; read-out: MIC
Pst. micros UPI 5464-1 = type: cell-based; conditions: Parvimonas micra, UPI54641; 10^6 cells/ml; Gram +; read-out: MIC
[1] = tested on: Clostridium difficile I-E; type: cell-based; conditions: Clostridioides difficile; 10^6 cells/ml; Gram +
[2] = tested on: Streptococcus pyogenes (S-8); type: cell-based; conditions: Streptococcus pyogenes; 10^6 cells/ml; Gram +; read-out: MIC
S. epidermidis IID 866 = type: cell-based; conditions: Staphylococcus epidermidis, IID866; 10^6 cells/ml; Gram +; read-out: MIC
B. distasonis 8503 = type: cell-based; conditions: Parabacteroides distasonis, 8503; 10^6 cells/ml; Gram -; read-out: MIC
E. coli ML 4707 = type: cell-based, Escherichia coli; conditions: Escherichia coli, ML4707, 10^6 cells/ml; Gram -; Table 1; read-out: MIC
F. necrophorum S-45 = type: cell-based; conditions: Fusobacterium necrophorum, S45; 10^6 cells/ml; Gram -; read-out: MIC
[3] = tested on: Serratia marcescens IID 618; type: cell-based; conditions: Serratia marcescens, IID618; 10^6 cells/ml; Gram -; read-out: MIC
[4] = tested on: Bacillus subtilis PCI 219; type: cell-based; conditions: Bacillus subtilis, PCI219; 10^6 cells/ml; Gram +; read-out: MIC
B. vulgatus KYA 29327 = type: cell-based; conditions: Phocaeicola vulgatus, KYA29327; 10^6 cells/ml; Gram -; read-out: MIC
C. ramosum = type: cell-based; conditions: Thomasclavelia ramosa; 10^6 cells/ml; Gram +; read-out: MIC
E. limosum KYA 8486 = type: cell-based; conditions: Eubacterium limosum, KYA8486; 10^6 cells/ml; Gram +; read-out: MIC
[5] = tested on: Proteus vulgaris IFO 3167; type: cell-based; conditions: Proteus vulgaris, IFO3167
F. varium KYA 8501 = type: cell-based; conditions: Fusobacterium varium, KYA8501; 10^6 cells/ml; Gram -; read-out: MIC
B. fragilis 0558 = type: cell-based, Bacteroides fragilis; conditions: Bacteroides fragilis, 0558; 10^6 cells/ml; Gram -; read-out: MIC
[6] = tested on: Peptococcus magnus KY 017; type: cell-based; conditions: Finegoldia magna, KY017; 10^6 cells/ml; Gram +; read-out: MIC
[7] = 10^6 cells/ml, Gram -, read-out: MIC

Row | SMILES | MIC (E. coli ATCC 10536) | MIC (Pst. micros UPI 5464-1) | MIC [1] | MIC [2] | MIC (S. epidermidis IID 866) | MIC (B. distasonis 8503) | MIC (E. coli ML 4707) | MIC (F. necrophorum S-45) | MIC [3] | MIC [4] | MIC (B. vulgatus KYA 29327) | MIC (C. ramosum) | MIC (E. limosum KYA 8486) | MIC [5, 7] | MIC (F. varium KYA 8501) | MIC (B. fragilis 0558) | MIC [6] | MIC [5]
1 | C[C@H]1CN(c2c(F)cc3c(=O)c(C(=O)O)cn(CCF)c3c2Cl)C[C@H]1N (relative stereo) [Example 27, 7-(cis-3-Amino-4-methyl-1-pyrrolidinyl)-8-chloro-6-fluoro-1-(2-fluoroethyl)-1,4-dihydro-4-oxo-3-quinolinecarboxylic acid] | 0.05 µg/mL (≈ 0.13 µM) | 0.39 µg/mL (≈ 1.01 µM) | 6.25 µg/mL | 0.78 µg/mL (≈ 2.02 µM) | 0.2 µg/mL (≈ 0.518 µM) | 6.25 µg/mL (≈ 16.2 µM) | 0.05 µg/mL (≈ 0.13 µM) | 1.56 µg/mL (≈ 4.04 µM) | 0.1 µg/mL (≈ 0.259 µM) | 0.1 µg/mL (≈ 0.259 µM) | 3.13 µg/mL (≈ 8.11 µM) | 25 µg/mL (≈ 64.8 µM) | 6.25 µg/mL (≈ 16.2 µM) | 0.05 µg/mL (≈ 0.13 µM) | 6.25 µg/mL (≈ 16.2 µM) | 1.56 µg/mL (≈ 4.04 µM) | 0.78 µg/mL (≈ 2.02 µM) | –
2 | C[C@H]1CN(c2c(F)cc3c(=O)c(C(=O)O)cn(C4CC4)c3c2Br)C[C@H]1N (relative stereo) [Example 21, 7-(cis-3-Amino-4-methyl-1-pyrrolidinyl)-8-bromo-1-cyclopropyl-6-fluoro-1,4-dihydro-4-oxo-3-quinolinecarboxylic acid] | 0.0125 µg/mL (≈ 0.0295 µM) | 0.1 µg/mL (≈ 0.236 µM) | 0.39 µg/mL | 0.1 µg/mL (≈ 0.236 µM) | 0.05 µg/mL (≈ 0.118 µM) | 0.39 µg/mL (≈ 0.919 µM) | 0.0125 µg/mL (≈ 0.0295 µM) | 0.1 µg/mL (≈ 0.236 µM) | 0.025 µg/mL (≈ 0.0589 µM) | 0.0125 µg/mL (≈ 0.0295 µM) | 0.1 µg/mL (≈ 0.236 µM) | 0.78 µg/mL (≈ 1.84 µM) | – | 0.0125 µg/mL (≈ 0.0295 µM) | 0.78 µg/mL (≈ 1.84 µM) | 0.05 µg/mL (≈ 0.118 µM) | 0.05 µg/mL (≈ 0.118 µM) | –
3 | C[C@@H]1CN(c2c(F)cc3c(=O)c(C(=O)O)cn(C4CC4)c3c2Br)C[C@H]1N (relative stereo) [Example 32, 7-(trans-3-Amino-4-methyl-1-pyrrolidinyl)-8-bromo-1-cyclopropyl-6-fluoro-1,4-dihydro-4-oxo-3-quinolinecarboxylic acid] | 0.0125 µg/mL (≈ 0.0295 µM) | 0.1 µg/mL (≈ 0.236 µM) | 0.78 µg/mL | 0.1 µg/mL (≈ 0.236 µM) | 0.05 µg/mL (≈ 0.118 µM) | 0.2 µg/mL (≈ 0.471 µM) | 0.0125 µg/mL (≈ 0.0295 µM) | 0.1 µg/mL (≈ 0.236 µM) | 0.05 µg/mL (≈ 0.118 µM) | 0.0125 µg/mL (≈ 0.0295 µM) | 0.1 µg/mL (≈ 0.236 µM) | 0.78 µg/mL (≈ 1.84 µM) | 0.1 µg/mL (≈ 0.236 µM) | 0.0125 µg/mL (≈ 0.0295 µM) | 0.78 µg/mL (≈ 1.84 µM) | 0.05 µg/mL (≈ 0.118 µM) | 0.05 µg/mL (≈ 0.118 µM) | –
4 | CC1CN(c2c(F)cc3c(=O)c(C(=O)O)cn(C4CC4)c3c2Cl)CC1CN (stereo not drawn) [Example 1, 7-(3-Aminomethyl-4-methyl-1-pyrrolidinyl)-8-chloro-1-cyclopropyl-6-fluoro-1,4-dihydro-4-oxo-3-quinolinecarboxylic acid] | 0.025 µg/mL (≈ 0.0635 µM) | 0.39 µg/mL (≈ 0.99 µM) | – | 0.0125 µg/mL (≈ 0.0317 µM) | 0.0125 µg/mL (≈ 0.0317 µM) | 0.39 µg/mL (≈ 0.99 µM) | 0.025 µg/mL (≈ 0.0635 µM) | 0.1 µg/mL (≈ 0.254 µM) | 0.1 µg/mL (≈ 0.254 µM) | 0.0125 µg/mL (≈ 0.0317 µM) | 0.1 µg/mL (≈ 0.254 µM) | 0.2 µg/mL (≈ 0.508 µM) | 0.39 µg/mL (≈ 0.99 µM) | 0.05 µg/mL (≈ 0.127 µM) | 0.39 µg/mL (≈ 0.99 µM) | ≤ 0.05 µg/mL | ≤ 0.05 µg/mL | –
5 | CCNCC1CN(c2c(F)cc3c(=O)c(C(=O)O)cn(C4CC4)c3c2F)CC1C (stereo not drawn) [Example 15, 1-Cyclopropyl-7-(3-ethylaminomethyl-4-methyl-1-pyrrolidinyl)-6,8-difluoro-1,4-dihydro-4-oxo-3-quinolinecarboxylic acid] | 0.05 µg/mL (≈ 0.123 µM) | 0.78 µg/mL (≈ 1.92 µM) | 0.78 µg/mL | 0.1 µg/mL (≈ 0.247 µM) | 0.05 µg/mL (≈ 0.123 µM) | 3.13 µg/mL (≈ 7.72 µM) | 0.05 µg/mL (≈ 0.123 µM) | 0.39 µg/mL (≈ 0.962 µM) | 0.2 µg/mL (≈ 0.493 µM) | 0.025 µg/mL (≈ 0.0617 µM) | 0.78 µg/mL (≈ 1.92 µM) | 0.78 µg/mL (≈ 1.92 µM) | 1.56 µg/mL (≈ 3.85 µM) | 0.1 µg/mL (≈ 0.247 µM) | 1.56 µg/mL (≈ 3.85 µM) | 0.39 µg/mL (≈ 0.962 µM) | ≤ 0.05 µg/mL | –
6 | CC1COc2c(N3C[C@@H](N)[C@@H](C)C3)c(F)cc3c(=O)c(C(=O)O)cn1c23.Cl (relative stereo) [Example 29, 10-(cis-3-Amino-4-methyl-1-pyrrolidinyl)-9-fluoro-2,3-dihydro-3-methyl-7-oxo-7H-pyrido[1,2,3-de][1,4]benzoxazine-6-carboxylic acid hydrochloride] | 0.05 µg/mL | 0.39 µg/mL | 6.25 µg/mL | 0.39 µg/mL | 0.2 µg/mL | – | 0.05 µg/mL | 0.78 µg/mL | 0.1 µg/mL | 0.05 µg/mL | 6.25 µg/mL | 12.5 µg/mL | 6.25 µg/mL | 0.05 µg/mL | 6.25 µg/mL | 1.56 µg/mL | 0.78 µg/mL | –
7 | CNCC1CN(c2c(F)cc3c(=O)c(C(=O)O)cn(C4CC4)c3c2Cl)CC1C (stereo not drawn) [Example 12, 8-Chloro-1-cyclopropyl-6-fluoro-1,4-dihydro-7-(3-methylaminomethyl-4-methyl-1-pyrrolidinyl)-4-oxo-3-quinolinecarboxylic acid] | 0.05 µg/mL (≈ 0.123 µM) | 0.39 µg/mL (≈ 0.956 µM) | 0.2 µg/mL | 0.05 µg/mL (≈ 0.123 µM) | 0.05 µg/mL (≈ 0.123 µM) | 0.39 µg/mL (≈ 0.956 µM) | 0.025 µg/mL (≈ 0.0613 µM) | 0.2 µg/mL (≈ 0.49 µM) | 0.2 µg/mL (≈ 0.49 µM) | 0.0125 µg/mL (≈ 0.0306 µM) | 0.2 µg/mL (≈ 0.49 µM) | 0.39 µg/mL (≈ 0.956 µM) | 0.39 µg/mL (≈ 0.956 µM) | 0.05 µg/mL (≈ 0.123 µM) | 0.78 µg/mL (≈ 1.91 µM) | 0.1 µg/mL (≈ 0.245 µM) | 0.05 µg/mL (≈ 0.123 µM) | –
8 | C[C@H]1CN(c2c(F)cc3c(=O)c(C(=O)O)cn(C4CC4)c3c2F)C[C@H]1N.Cl (relative stereo) [Example 20, 7-(cis-3-Amino-4-methyl-1-pyrrolidinyl)-1-cyclopropyl-6,8-difluoro-1,4-dihydro-4-oxo-3-quinolinecarboxylic acid hydrochloride] | 0.025 µg/mL | 0.2 µg/mL | 1.56 µg/mL | 0.2 µg/mL | 0.05 µg/mL | 0.78 µg/mL | 0.025 µg/mL | 0.39 µg/mL | 0.05 µg/mL | 0.025 µg/mL | 0.39 µg/mL | 1.56 µg/mL | – | 0.025 µg/mL | 1.56 µg/mL | 0.39 µg/mL | 0.2 µg/mL | –
9 | C[C@H]1CN(c2c(F)cc3c(=O)c(C(=O)O)cn4c3c2OC[C@@H]4C)C[C@H]1N.Cl (mixture of isomers) [Example 31, (3S)-10-(cis-3-Amino-4-methyl-1-pyrrolidinyl)-9-fluoro-2,3-dihydro-3-methyl-7-oxo-7H-pyrido[1,2,3-de][1,4]benzoxazine-6-carboxylic acid hydrochloride] | 0.025 µg/mL | 0.2 µg/mL | 3.13 µg/mL | 0.2 µg/mL | 0.2 µg/mL | – | 0.025 µg/mL | 0.39 µg/mL | 0.1 µg/mL | 0.05 µg/mL | 3.13 µg/mL | 6.25 µg/mL | 3.13 µg/mL | 0.1 µg/mL | 3.13 µg/mL | 0.78 µg/mL | 0.2 µg/mL | –
10 | C[C@@H]1CN(c2c(F)cc3c(=O)c(C(=O)O)cn(C4CC4)c3c2F)C[C@H]1N (relative stereo) [Example 18, 7-(trans-3-Amino-4-methyl-1-pyrrolidinyl)-1-cyclopropyl-6,8-difluoro-1,4-dihydro-4-oxo-3-quinolinecarboxylic acid] | 0.05 µg/mL (≈ 0.138 µM) | 0.1 µg/mL (≈ 0.275 µM) | 1.56 µg/mL | 0.05 µg/mL (≈ 0.138 µM) | 0.05 µg/mL (≈ 0.138 µM) | 0.39 µg/mL (≈ 1.07 µM) | 0.0063 µg/mL (≈ 0.0173 µM) | 0.2 µg/mL (≈ 0.55 µM) | 0.05 µg/mL (≈ 0.138 µM) | 0.025 µg/mL (≈ 0.0688 µM) | 0.39 µg/mL (≈ 1.07 µM) | 0.78 µg/mL (≈ 2.15 µM) | – | – | 1.56 µg/mL (≈ 4.29 µM) | 0.2 µg/mL (≈ 0.55 µM) | 0.05 µg/mL (≈ 0.138 µM) | 0.0125 µg/mL (≈ 0.0344 µM)
11 | CC1CN(c2c(F)cc3c(=O)c(C(=O)O)cn(C4CC4)c3c2Cl)CC1N (stereo not drawn) [Example 7, 7-(3-Amino-4-methyl-1-pyrrolidinyl)-8-chloro-1-cyclopropyl-6-fluoro-1,4-dihydro-4-oxo-3-quinolinecarboxylic acid] | 0.0125 µg/mL (≈ 0.0329 µM) | 0.1 µg/mL (≈ 0.263 µM) | – | 0.1 µg/mL (≈ 0.263 µM) | 0.05 µg/mL (≈ 0.132 µM) | 0.39 µg/mL (≈ 1.03 µM) | 0.0125 µg/mL (≈ 0.0329 µM) | 0.2 µg/mL (≈ 0.527 µM) | 0.05 µg/mL (≈ 0.132 µM) | 0.0125 µg/mL (≈ 0.0329 µM) | 0.1 µg/mL (≈ 0.263 µM) | 0.78 µg/mL (≈ 2.05 µM) | 0.2 µg/mL (≈ 0.527 µM) | 0.0125 µg/mL (≈ 0.0329 µM) | 0.78 µg/mL (≈ 2.05 µM) | 0.05 µg/mL (≈ 0.132 µM) | 0.05 µg/mL (≈ 0.132 µM) | –

From US4753953A, “Pyridonecarboxylic acid derivatives and antibacterial pharmaceutical compositions thereof” (priority 1985, dated 1988)
